Values of other authors in patent publication US20120252675A1, “HERBICIDE […] A […] E[…] A POLYA[…] THE ALKYL GROUP IS BRANCHED” (priority 2009, published 2012).

Conditions: room temperature

Question: For O=C(O)CNCP(=O)(O)O [glyphosate], which solubility in water is on record?
Answer: about 1.5 % by weight
